# Tested on: phenylquinone-induced writhing reactions
# Assay: phenylquinone-induced writhing in mice
# Assay type: in vivo
# Conditions: male NMRI mice, phenylquinone i.p. 10 minutes after compound, writhing counted 5-20 minutes after phenylquinone
# Protocol: The investigation into analgesic efficacy was performed by phenylquinone-induced writhing in mice (modified after: I. C. Hendershot, J. Forsaith, J. Pharmacol. Exp. There. 125, 237–240 (1959)). The corresponding literature description is hereby introduced as a reference and is deemed to be part of the disclosure.
# Male NMRI mice weighing from 25 to 30 g were used for this purpose. Groups of 10 animals per substance dose received, 10 minutes after intravenous administration of the compounds tested, 0.3 ml/mouse of a 0.02% aqueous solution of phenylquinone (phenylbenzoquinone, Sigma, Deisenhofen; solution prepared with addition of 5% of ethanol and stored in a water bath at 45° C.) administered intraperitoneally. The animals were placed individually in observation cages. A push button counter was used to record the number of pain-induced stretching movements (writhing reactions=straightening of the torso with stretching of the rear extremities) for 5–20 minutes after phenylquinone administration. The control was provided by animals who received only physiological common salt solution.
# The compounds were tested at the standard dosage of 10 mg/kg. Inhibition of the writhing reactions by a substance was calculated according to the following formula: […]
# The in-depth investigation into analgesic efficacy was performed using phenylquinone-induced writhing in mice, as described above.
row,SMILES,% inhibition of writhing reactions 10 mg/kg i.v.
1,"COc1cccc(C2(O)CCC(OC(=O)CC3=CCC(=O)N(C)c4cc(Cl)ccc43)CC2CN(C)C)c1 (stereo not drawn) [Example 4, 2′-(8-chloro-1-methyl-2-oxo-2,3-dihydro-1H-benzo[b]azepin-5-yl) acetic acid [3″-(N,N-dimethylaminomethyl)-4″-hydroxy-4″-(m-methoxyphenyl)cyclohexyl]ester]",39%
2,"COc1cccc(C2(O)CCC(NC(=O)CC3=CCC(=O)N(C)c4cc(Cl)ccc43)CC2CN(C)C)c1 (stereo not drawn) [Example 6, 2′-(8-chloro-1-methyl-2-oxo-2,3-dihydro-1H-benzo[b]azepin-5-yl)-N-[3″-(N,N-dimethylaminomethyl)-4″-hydroxy-4″-(m-methoxyphenyl)cyclohexyl]acetamide]",25%
3,"COc1cccc(C2(O)CCC(OC(=O)CC3=CCC(=O)Nc4cc(Cl)ccc43)CC2CN(C)C)c1 (stereo not drawn) [Example 5, 2′-(8-chloro-2-oxo-2,3-dihydro-1H-benzo[b]azepin-5-yl) acetic acid [3″-(N,N-dimethylaminomethyl)-4″-hydroxy-4″-(m-methoxyphenyl)cyclohexyl]ester]",63%

# — patent US7041662B2, “Substituted benzo [b] azepin-2-one compounds” (Grunenthal GmbH, priority 2002, dated 2006)
